# Results taken from US5496808A (priority 1991, dated 1996).
# Where two headings read alike, the source gives them in different places.
# Experiments:
# [1] = test system: LoVo (colon adenocarcinama); test: cells; type: cell-based, human; details: for IC50: Homo sapiens, read-out: Cytotoxicity IC50 LoVo
# Description: (§1) Colony assay: 4 hr treatment
# (§2) ^(1) IC50 = concentration inhibiting 50% of colony formation
# [2] = test system: LoVo/DX (colon adenocarcinoma resistant to Doxorubicin); test: cells; details: for IC50: Homo sapiens, 4 h, read-out: Cytotoxicity IC50 LoVo/DX
# Description: as §1, §2
# ^(2) R.I. = Resistance Index = (IC50 LoVo/DX)(IC50 LoVo)
# Ascitic P388 Leukemia = test: Antitumor activity "in vivo" against ascitic P388 leukemia, sensitive to Doxorubicin; set-up: species or system murine
# Experimental: ^(3) 10^6 cell/mouse were injected i.p. on day 0.
# (§3) ^(4) Compounds were suspended in Tween 80 10% and injected i.p. one
# (§4) day after tumor transplantation.
# (§5) ^(5) Median survival time of treated mice/Median survival time of
# (§6) ^(6) No. of toxic deaths/total No. of mice.
# [3] = test system: Disseminated P388/DX Johnson Leukemia; test: Antitumor activity "in vivo" against disseminated P388/DX Johnson leukemia, resistant to Doxorubicin; set-up: species or system murine
# Experimental: ^(7) 10^5 cell/mouse were injected i.v. on day 0.
# as §3, §4, §5, §6
# [4] = 0.33 mg/kg i.p. one day after tumor transplantation
# [5] = 0.5 mg/kg i.p. one day after tumor transplantation
# [6] = 0.75 mg/kg i.p. one day after tumor transplantation
# [7] = 1.9 mg/kg i.p. one day after tumor transplantation
# [8] = 2.5 mg/kg i.p. one day after tumor transplantation
# [9] = 10.0 mg/kg i.p. one day after tumor transplantation
# [10] = 15.0 mg/kg i.p. one day after tumor transplantation
# [11] = 22.0 mg/kg i.p. one day after tumor transplantation
# [12] = 1.0 mg/kg i.p. one day after tumor transplantation
# [13] = 1.4 mg/kg i.p. one day after tumor transplantation
# [14] = 2.0 mg/kg i.p. one day after tumor transplantation
# [15] = 2.8 mg/kg i.p. one day after tumor transplantation
# [16] = 1.2 mg/kg i.p. one day after tumor transplantation
# [17] = 1.6 mg/kg i.p. one day after tumor transplantation
# [18] = 2.1 mg/kg i.p. one day after tumor transplantation
# [19] = 3.7 mg/kg i.p. one day after tumor transplantation
structure (smiles),measurement,setting,value
CC(=O)[C@]1(O)Cc2c(O)c3c(c(O)c2[C@@H](O[C@H]2C[C@H](N)[C@H](O)[C@H](C)O2)C1)C(=O)c1ccccc1C3=O [4-demethoxydaunorubicin],IC50,[1]; 4 h,0.004 µg/mL
same,IC50,[2]; LoVo/DX,0.048 µg/mL
same,R.I. = Resistance Index (IC50 LoVo/DX)(IC50 LoVo),"[2]; human, lovo/dx vs lovo, 240 min",12.0
same,T/C (median survival time of treated mice/controls × 100),Ascitic P388 Leukemia; [4],142%
same,TOX,Ascitic P388 Leukemia; [4],0/27
same,T/C (median survival time of treated mice/controls × 100),Ascitic P388 Leukemia; [5],160%
same,TOX,Ascitic P388 Leukemia; [5],0/28
same,T/C (median survival time of treated mice/controls × 100),Ascitic P388 Leukemia; [6],163%
same,TOX,Ascitic P388 Leukemia; [6],4/28
same,T/C (median survival time of treated mice/controls × 100),[3]; [7],106%
same,TOX,[3]; [7],0/10
same,T/C (median survival time of treated mice/controls × 100),[3]; [8],89%
same,TOX,[3]; [8],0/10
"COc1cccc2c1C(=O)c1c(O)c3c(c(O)c1C2=O)C[C@@](O)(C(=O)CO)C[C@@H]3O[C@H]1C[C@H](N)[C@H](O)[C@H](C)O1 [Doxorubicin, doxorubicin]",IC50,[1]; colony assay: 4 hr treatment,0.0825 µg/mL
same,IC50,[2]; LoVo/DX,4.98 µg/mL
same,T/C (median survival time of treated mice/controls × 100),Ascitic P388 Leukemia; [9],299%
same,TOX,Ascitic P388 Leukemia; [9],0/10
same,T/C (median survival time of treated mice/controls × 100),Ascitic P388 Leukemia; [10],90%
same,TOX,Ascitic P388 Leukemia; [10],3/6
same,TOX,[3]; 16.9 mg/kg i.p. one day after tumor transplantation,0/6
same,T/C (median survival time of treated mice/controls × 100),[3]; [11],94%
same,TOX,[3]; [11],3/6
"CC(=O)[C@]1(O)Cc2c(O)c3c(c(O)c2[C@@H](O[C@H]2C[C@H](N(CCCl)CCCl)[C@H](OS(C)(=O)=O)[C@H](C)O2)C1)C(=O)c1ccccc1C3=O [compound 1h, 4-demethoxy-4'-O-methansulfonyl-N,N-bis(2-chloroethyl)daunorubicin]",Cytotoxicity IC50 LoVo,[1]; colony assay: 4 hr treatment,0.0043 µg/mL
same,R.I. = Resistance Index (IC50 LoVo/DX)(IC50 LoVo),"[2]; LoVo/DX versus LoVo, colony assay: 4 hr treatment",3.3
same,Cytotoxicity IC50 LoVo/DX,"[2]; LoVo/DX, colony assay: 4 hr treatment",0.014 µg/mL
same,activity on the doxorubicin-resistant cell line compared with 4-demethoxydaunorubicin and Doxorubicin,"[2]; LoVo/DX, in comparison with 4-demethoxydaunorubicin (3b) and Doxorubicin (3c)",striking higher activity
same,T/C (median survival time of treated mice/controls × 100),Ascitic P388 Leukemia; [12],184%
same,TOX,Ascitic P388 Leukemia; [12],0/12
same,T/C (median survival time of treated mice/controls × 100),Ascitic P388 Leukemia; [13],217%
same,TOX,Ascitic P388 Leukemia; [13],0/6
same,T/C (median survival time of treated mice/controls × 100),Ascitic P388 Leukemia; [14],233%
same,TOX,Ascitic P388 Leukemia; [14],1/6
same,T/C (median survival time of treated mice/controls × 100),Ascitic P388 Leukemia; [15],78%
same,TOX,Ascitic P388 Leukemia; [15],6/6
same,T/C (median survival time of treated mice/controls × 100),[3]; [16],133%
same,TOX,[3]; [16],0/6
same,T/C (median survival time of treated mice/controls × 100),[3]; [17],144%
same,TOX,[3]; [17],0/6
same,T/C (median survival time of treated mice/controls × 100),[3]; [18],185%
same,TOX,[3]; [18],0/6
same,T/C (median survival time of treated mice/controls × 100),[3]; [15],220%
same,TOX,[3]; [15],0/6
same,T/C (median survival time of treated mice/controls × 100),[3]; [19],250%
same,TOX,[3]; [19],0/6
same,activity when tested on resistant Leukemia,[3]; P388 resistant to Doxorubicin (Johnson),high activity
